Source: patent publication US20220281848A1, “PYRAZOLE-SUBSTITUTED PYRROLIDINONES AS HERBICIDES” (FMC Corporation, priority 2019, published 2022)

System: plants
Experiment: Test D pre-emergence, other plants of Tables D1 and D3
Assay type: in vivo
Settings: for damage to plant (100=total damage to plant; 0=no damage to plant), SORVU: preemergent, 20 DAA; for damage to plant, ALOMY / damage to plant, AVEFA / damage to plant, BEAVA / damage to plant, BROTE / damage to plant, BRSNN / damage to plant, CHEAL / damage to plant, GALAP / damage to plant, HORVW / damage to plant, KCHSC / damage to plant, LOLPE / damage to plant, POAAN / damage to plant, POLCO / damage to plant, SINAR / damage to plant, STEME / damage to plant, VERPE: pre-emergence, 100=total damage, 0=no damage
Method in brief: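 Seeds treated with herbicide safener; sown in soil; glasshouse, 16 h light, 65% humidity. Sprayed day 1 (pre) or ~day 12 (post). Spray in 0.2% v/v adjuvant. Scored 0–100 damage: 20 DAA pre, 15 d post.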

CCn1nc([C@H]2CN(C)C(=O)[C@@H]2C(=O)Nc2cccc(F)c2F)c2c(F)cccc21 [Compound 7]
70: damage to plant (100=total damage to plant; 0=no damage to plant), SORVU (rate 250)
0: damage to plant, ALOMY (rate 15, 20 DAA) | damage to plant, AVEFA (rate 15, 20 DAA) | damage to plant, BEAVA (rate 15, 20 DAA) | damage to plant, BROTE (rate 15, 20 DAA) | damage to plant, BRSNN (rate 15, 20 DAA) | damage to plant, CHEAL (rate 15, 20 DAA) | damage to plant, GALAP (rate 15, 20 DAA) | damage to plant, HORVW (rate 15, 20 DAA) | damage to plant, KCHSC (rate 15, 20 DAA) | damage to plant, LOLPE (rate 15, 20 DAA) | damage to plant, POAAN (rate 15, 20 DAA) | damage to plant, POLCO (rate 15, 20 DAA) | damage to plant, SINAR (rate 15, 20 DAA) | damage to plant, STEME (rate 15, 20 DAA) | damage to plant, VERPE (rate 15, 20 DAA) | damage to plant, ALOMY (rate 30, 20 DAA) | damage to plant, AVEFA (rate 30, 20 DAA) | damage to plant, BEAVA (rate 30, 20 DAA) | damage to plant, BROTE (rate 30, 20 DAA) | damage to plant, BRSNN (rate 30, 20 DAA) | damage to plant, CHEAL (rate 30, 20 DAA) | damage to plant, GALAP (rate 30, 20 DAA) | damage to plant, HORVW (rate 30, 20 DAA) | damage to plant, KCHSC (rate 30, 20 DAA) | damage to plant, LOLPE (rate 30, 20 DAA) | damage to plant, POAAN (rate 30, 20 DAA) | damage to plant, POLCO (rate 30, 20 DAA) | damage to plant, SINAR (rate 30, 20 DAA) | damage to plant, STEME (rate 30, 20 DAA) | damage to plant, VERPE (rate 30, 20 DAA) | damage to plant, ALOMY (rate 60, 20 DAA) | damage to plant, AVEFA (rate 60, 20 DAA) | damage to plant, BEAVA (rate 60, 20 DAA) | damage to plant, BROTE (rate 60, 20 DAA) | damage to plant, BRSNN (rate 60, 20 DAA) | damage to plant, CHEAL (rate 60, 20 DAA) | damage to plant, GALAP (rate 60, 20 DAA) | damage to plant, HORVW (rate 60, 20 DAA) | damage to plant, KCHSC (rate 60, 20 DAA) | damage to plant, LOLPE (rate 60, 20 DAA) | damage to plant, POAAN (rate 60, 20 DAA) | damage to plant, POLCO (rate 60, 20 DAA) | damage to plant, SINAR (rate 60, 20 DAA) | damage to plant, STEME (rate 60, 20 DAA) | damage to plant, VERPE (rate 60, 20 DAA) | damage to plant, ALOMY (rate 130, 20 DAA) | damage to plant, BEAVA (rate 130, 20 DAA) | damage to plant, BROTE (rate 130, 20 DAA) | damage to plant, BRSNN (rate 130, 20 DAA) | damage to plant, CHEAL (rate 130, 20 DAA) | damage to plant, GALAP (rate 130, 20 DAA) | damage to plant, HORVW (rate 130, 20 DAA) | damage to plant, KCHSC (rate 130, 20 DAA) | damage to plant, LOLPE (rate 130, 20 DAA) | damage to plant, POAAN (rate 130, 20 DAA) | damage to plant, POLCO (rate 130, 20 DAA) | damage to plant, SINAR (rate 130, 20 DAA) | damage to plant, STEME (rate 130, 20 DAA) | damage to plant, VERPE (rate 130, 20 DAA) | damage to plant, ALOMY (rate 250, 20 DAA) | damage to plant, BEAVA (rate 250, 20 DAA) | damage to plant, BROTE (rate 250, 20 DAA) | damage to plant, BRSNN (rate 250, 20 DAA) | damage to plant, CHEAL (rate 250, 20 DAA) | damage to plant, GALAP (rate 250, 20 DAA) | damage to plant, HORVW (rate 250, 20 DAA) | damage to plant, KCHSC (rate 250, 20 DAA) | damage to plant, LOLPE (rate 250, 20 DAA) | damage to plant, POAAN (rate 250, 20 DAA) | damage to plant, POLCO (rate 250, 20 DAA) | damage to plant, SINAR (rate 250, 20 DAA) | damage to plant, STEME (rate 250, 20 DAA) | damage to plant, VERPE (rate 250, 20 DAA) | damage to plant, ALOMY (rate 500, 20 DAA) | damage to plant, BEAVA (rate 500, 20 DAA) | damage to plant, BROTE (rate 500, 20 DAA) | damage to plant, BRSNN (rate 500, 20 DAA) | damage to plant, CHEAL (rate 500, 20 DAA) | damage to plant, GALAP (rate 500, 20 DAA) | damage to plant, HORVW (rate 500, 20 DAA) | damage to plant, KCHSC (rate 500, 20 DAA) | damage to plant, LOLPE (rate 500, 20 DAA) | damage to plant, POAAN (rate 500, 20 DAA) | damage to plant, POLCO (rate 500, 20 DAA) | damage to plant, SINAR (rate 500, 20 DAA) | damage to plant, STEME (rate 500, 20 DAA) | damage to plant, VERPE (rate 500, 20 DAA)
10: damage to plant, AVEFA (rate 130, 20 DAA)
50: damage to plant, AVEFA (rate 500, 20 DAA)
20: damage to plant (100=total damage to plant; 0=no damage to plant), SORVU (rate 130) | damage to plant, AVEFA (rate 250, 20 DAA)
80: damage to plant (100=total damage to plant; 0=no damage to plant), SORVU (rate 500)
